Structures are written as SMILES. pIC50: −log10 of the molar value. In brackets after ≈: the same amount, converted by molar mass. Activity calls are given as the source filed them. Where only a bound is given, the exact number is not on record here.

For data set [1], the system named is Staphylococcus aureus. Description: Antibacterial activity against methicillin/ceftriaxone/meropenem resistant Staphylococcus aureus NRS 129 assessed as reduction in bacterial growth incubated for 18 to 24 hrs by broth dilution method. Type of data set: functional. The settings on record: time 18-24 hrs. (In general: In broth dilution the organism is exposed to a series of concentrations in liquid medium.)

For data set [2], the system named is Staphylococcus aureus. As to the kind of experiment: Antibacterial activity against methicillin/ceftriaxone/meropenem/gentamycin/linezolid resistant Staphylococcus aureus NRS 119 assessed as reduction in bacterial growth incubated for 18 to 24 hrs by broth dilution method. Type of data set: functional. The settings on record: time 18-24 hrs.
Data set [3] relates to Staphylococcus aureus. Description: Antibacterial activity against Staphylococcus aureus ATCC 29213 assessed as inhibition of bacterial growth measured for 18 to 24 hrs by broth dilution method. The settings on record: time 18-24 hrs. Format: functional.
In data set [4] the test system is Staphylococcus aureus. Description: Antibacterial activity against methicillin/ceftriaxone/meropenem/vancomycin/teicoplanin resistant Staphylococcus aureus VRS 4 assessed as reduction in bacterial growth incubated for 18 to 24 hrs by broth dilution method. Type of data set: functional. Particulars: time 18-24 hrs.
For data set [5], the system named is Staphylococcus aureus. Description: Antibacterial activity against methicillin/ceftriaxone/meropenem resistant Staphylococcus aureus NRS 193 assessed as reduction in bacterial growth incubated for 18 to 24 hrs by broth dilution method. Particulars: time 18-24 hrs. Type of data set: functional.
Data set [6] deals with Staphylococcus aureus. Description: Antibacterial activity against methicillin/ceftriaxone/meropenem resistant Staphylococcus aureus NRS 192 assessed as reduction in bacterial growth incubated for 18 to 24 hrs by broth dilution method. The settings on record: time 18-24 hrs. Format: functional.
Data set [7] has as its system Staphylococcus aureus. Description: Antibacterial activity against methicillin/ceftriaxone/meropenem resistant Staphylococcus aureus NRS 186 assessed as reduction in bacterial growth incubated for 18 to 24 hrs by broth dilution method. Type of data set: functional. Particulars: time 18-24 hrs.
Data set [8] deals with Staphylococcus aureus. As to the kind of experiment: Antibacterial activity against methicillin/ceftriaxone/meropenem resistant Staphylococcus aureus NRS 198 assessed as reduction in bacterial growth incubated for 18 to 24 hrs by broth dilution method. The settings on record: time 18-24 hrs. Format: functional.
The test system of data set [9] is Staphylococcus aureus. Description: Antibacterial activity against methicillin-susceptible Staphylococcus aureus assessed as reduction in bacterial growth incubated for 18 to 24 hrs by broth dilution method. Particulars: time 18-24 hrs. Type of data set: functional.
Data set [10] concerns Staphylococcus aureus. As to the kind of experiment: Antibacterial activity against methicillin/ceftriaxone/meropenem/gentamycin/vancomycin/teicoplanin resistant Staphylococcus aureus VRS 1 assessed as reduction in bacterial growth incubated for 18 to 24 hrs by broth dilution method. Format: functional. The settings on record: time 18-24 hrs.
Data set [11] has as its system Mycobacterium tuberculosis. Description: Antimycobacterial activity against Mycobacterium tuberculosis H37Rv ATCC 27294 assessed as inhibition of bacterial growth incubated for 18 to 24 hrs by broth dilution method. Type of data set: functional.
The subject of data set [12] is Staphylococcus aureus. As to the kind of experiment: Antibacterial activity against methicillin/ceftriaxone/meropenem/gentamycin/linezolid resistant Staphylococcus aureus NRS 100 assessed as reduction in bacterial growth incubated for 18 to 24 hrs by broth dilution method. Format: functional. Particulars: time 18-24 hrs.
Data set [13] concerns Staphylococcus aureus. As to the kind of experiment: Antibacterial activity against methicillin/ceftriaxone resistant Staphylococcus aureus NRS 194 assessed as reduction in bacterial growth incubated for 18 to 24 hrs by broth dilution method. Format: functional. Particulars: time 18-24 hrs.
Data set [14] relates to Staphylococcus aureus. As to the kind of experiment: Antibacterial activity against methicillin/ceftriaxone/meropenem/vancomycin/teicoplanin resistant Staphylococcus aureus VRS 12 assessed as reduction in bacterial growth incubated for 18 to 24 hrs by broth dilution method. Type of data set: functional. The settings on record: time 18-24 hrs.
Data set [15] deals with Staphylococcus aureus. Description: Antibacterial activity against methicillin/ceftriaxone/meropenem resistant Staphylococcus aureus NRS 191 assessed as reduction in bacterial growth incubated for 18 to 24 hrs by broth dilution method. Format: functional. Particulars: time 18-24 hrs.
The test system of data set [16] is Mycobacterium tuberculosis. Description: Antimycobacterial activity against Mycobacterium tuberculosis H37Rv assessed as reduction in bacterial growth. Format: functional.
Another data set concerns the target DNA gyrase (Escherichia coli, UniProt P0AES4+P0AES6). Description: Inhibition of Escherichia coli DNA gyrase. Format: protein-complex assay.
The subject of data set [17] is Mycobacterium tuberculosis. Description: Antimycobacterial activity against isoniazid-resisitant Mycobacterium tuberculosis ATCC 35822 assessed as inhibition of bacterial growth incubated for 18 to 24 hrs by broth dilution method. Type of data set: functional. The settings on record: time 18-24 hrs.
For data set [18], the system named is Mycobacterium tuberculosis. As to the kind of experiment: Antimycobacterial activity against streptomycin-resisitant Mycobacterium tuberculosis ATCC 35820 assessed as inhibition of bacterial growth incubated for 18 to 24 hrs by broth dilution method. Type of data set: functional. The settings on record: time 18-24 hrs.
The subject of data set [19] is Mycobacterium tuberculosis. Description: Antimycobacterial activity against rifampicin-resisitant Mycobacterium tuberculosis ATCC 35838 assessed as inhibition of bacterial growth incubated for 18 to 24 hrs by broth dilution method. Format: functional. The settings on record: time 18-24 hrs.
The test system of data set [20] is Mycobacterium tuberculosis. Description: Antimycobacterial activity against ethambutol-resisitant Mycobacterium tuberculosis ATCC 35837 assessed as inhibition of bacterial growth incubated for 18 to 24 hrs by broth dilution method. Type of data set: functional. Particulars: time 18-24 hrs.
Data set [21] relates to Staphylococcus aureus. Description: Antibacterial activity against Staphylococcus aureus assessed as reduction in bacterial growth. Format: functional.
A short description of data set [22]: Selectivity index, ratio of CC50 for cytotoxicity against African green monkey Vero cells assessed as reduction in cell viability to MIC for antibacterial activity against Mycobacterium tuberculosis H37Rv ATCC 27294 assessed as inhibition of bacterial growth. Type of data set: toxicity, cell-based. Particulars: read-out: Selectivity Index.
The test system of the next data set is Mycobacteroides chelonae. As to the kind of experiment: Antibacterial activity against Mycobacteroides chelonae assessed as reduction in bacterial growth incubated for 18 to 24 hrs by broth dilution method. Type of data set: functional. The settings on record: time 18-24 hrs.
For data set [23], the system named is Mycolicibacterium fortuitum. Description: Antimycobacterial activity against Mycobacterium fortuitum assessed as reduction in bacterial growth incubated for 18 to 24 hrs by broth dilution method. Type of data set: functional. Particulars: time 18-24 hrs.
Data set [24] in a line: Cytotoxicity against African green monkey Vero cells assessed as reduction in cell viability incubated for 72 hrs by MTT assay. Format: toxicity, cell-based. Particulars: chlorocebus sabaeus. For orientation: Tetrazolium dyes change colour on reduction, which living cells bring about.
Data set [25] can be described thus: Metabolic stability in human liver microsome assessed as elimination rate constant at 1 uM preincubated for 5 mins followed by NADPH addition and measured after 60 mins by LC-MS/MS analysis. Format: ADME. Particulars: liver microsomes, time 65 min.
Data set [26] is described as follows: Metabolic stability in human liver microsome assessed as intrinsic clearance at 1 uM preincubated for 5 mins followed by NADPH addition and measured after 60 mins by LC-MS/MS analysis. Type of data set: ADME. Particulars: liver microsomes, time 65 min, read-out: CLH. A general note: Liver microsomes are a subcellular fraction often used to study metabolism.

Data set [27] is described as follows: Selectivity index, ratio of CC50 for cytotoxicity against African green monkey Vero cells assessed as reduction in cell viability to MIC for antibacterial activity against Staphylococcus aureus ATCC 29213 assessed as inhibition of bacterial growth. Type of data set: toxicity, cell-based. Particulars: read-out: Selectivity Index.
The nature of data set [28]: Metabolic stability in human liver microsome assessed as half life at 1 uM preincubated for 5 mins followed by NADPH addition and measured after 60 mins by LC-MS/MS analysis. Type of data set: ADME. The settings on record: liver microsomes, time 65 min.
Data set [29] is described as follows: Aqueous solubility of compound in phosphate buffer at pH 7.4 incubated for 16 hrs by HPLC analysis. Format: physicochemical.
Data set [30] concerns the target DNA gyrase (Escherichia coli) (UniProt P0AES6+P0AES4). Description: Inhibition of Escherichia coli DNA gyrase supercoiling activity assessed as reduction in linear DNA formation at 8 times MIC incubated for 90 mins. Type of data set: protein-complex assay.
The test system of data set [31] is Staphylococcus aureus. As to the kind of experiment: Bacteriostatic activity against Staphylococcus aureus ATCC 29213 at 4 to 8 times MIC incubated for 2 to 24 hrs by time kill assay. Format: functional, organism-based. The settings on record: time 2-24 hrs.

The term MIC denotes the smallest concentration in the dilution series that meets the test's criterion for growth inhibition. Take `C[C@H]1COc2c(N3CCN(C)CC3)c(F)cc3c(=O)c(C(=O)O)cn1c23` [LEVOFLOXACIN ANHYDROUS]: the MIC in the data set with Staphylococcus aureus [1] came to 0.25 µg/mL (≈ 0.692 µM); in the data set on Staphylococcus aureus [2], 16 µg/mL (≈ 44.3 µM); in the data set on Staphylococcus aureus [3], 0.25 µg/mL (≈ 0.692 µM); in the data set with Staphylococcus aureus [4], 32 µg/mL (≈ 88.6 µM); in the data set on Staphylococcus aureus [5] it was 32 µg/mL (≈ 88.6 µM); with Staphylococcus aureus [6] it was 8 µg/mL (≈ 22.1 µM). For the same compound, the MIC with Staphylococcus aureus [7] was 4 µg/mL (≈ 11.1 µM); in the data set with Staphylococcus aureus [8], 32 µg/mL (≈ 88.6 µM); in the data set on Staphylococcus aureus [9] it was 0.25 µg/mL (≈ 0.692 µM); with Staphylococcus aureus [10], 32 µg/mL (≈ 88.6 µM); in [11], 0.25 µg/mL (≈ 0.692 µM); in the data set on Staphylococcus aureus [12] it was 0.25 µg/mL (≈ 0.692 µM). Further, the results for the MIC in the data set on Staphylococcus aureus [13], in the data set with Staphylococcus aureus [14] and in the data set with Staphylococcus aureus [15] were 0.25 µg/mL (≈ 0.692 µM), 32 µg/mL (≈ 88.6 µM) and 16 µg/mL (≈ 44.3 µM), respectively.
For `O=C(Nc1ccc(-n2ccc(-c3cc4ccccc4o3)n2)cc1)c1cc([N+](=O)[O-])cc([N+](=O)[O-])c1`, the MIC in [16] was found to be 0.03 µg/mL (≈ 0.0639 µM).
What is called pIC50 is −log10 of the IC50, conventionally taken in molar units. As for `COc1ccc(Nc2n[nH]c(/N=C/c3ccc(N4CCCCC4)cc3)c2C(N)=O)cc1`, the pIC50 against DNA gyrase was 2.11.
Turning to `COC(=O)c1cc(-c2cccc(NC(=O)Nc3ccc(Cl)c(Cl)c3)c2)on1`, the MIC in data set [16] was determined as 0.25 µg/mL (≈ 0.615 µM).
Turning to `CC[C@@H](CO)NCCN[C@@H](CC)CO` [ETHAMBUTOL], the MIC came to 4 µg/mL (≈ 19.6 µM) in data set [17]; 2 µg/mL (≈ 9.79 µM) in data set [18]; 2 µg/mL (≈ 9.79 µM) in data set [19]; 32 µg/mL (≈ 157 µM) in data set [20]; 2 µg/mL (≈ 9.79 µM) in data set [11].
With `CCOC(=O)c1c(N)csc1-c1cn(-c2ccccc2)nc1-c1ccc(C)cc1`, the pIC50 on DNA gyrase was 4.91. Besides, the MIC in the data set with Staphylococcus aureus [21] worked out at 0.22 µg/mL (≈ 0.545 µM).
On to `NNC(=O)c1ccncc1` [ISONIAZID], for which the MIC in data set [17] is greater than 64 µg/mL; in data set [18], 0.03 µg/mL (≈ 0.219 µM); in data set [19] it was 0.03 µg/mL (≈ 0.219 µM); in [20], 0.03 µg/mL (≈ 0.219 µM); in [11] it was 0.03 µg/mL (≈ 0.219 µM).
One may read the CC50 as the concentration at which the toxic effect on the cells reaches its halfway point. In the case of `COc1cc(-c2ccn(-c3ccc(NC(=O)NCc4ccccc4)cc3)n2)cc(OC)c1OC`, in data set [22], the selectivity ratio was less than 10. In addition, the minimal inhibitory concentration (MIC) in the data set on Staphylococcus aureus [3] is greater than 64 µg/mL; in the data set with Mycobacteroides chelonae, 1 µg/mL (≈ 2.18 µM); in [23], 0.5 µg/mL (≈ 1.09 µM); in data set [11], 0.5 µg/mL (≈ 1.09 µM). In data set [24], the CC50 at 72 h was less than 5 µg/mL.
The half-life is how long it takes for the measured level to halve. As a reminder, the solubility is how much of the substance goes into solution per volume. As for `COc1ccc(-c2ccn(-c3ccc(NC(=O)Nc4ccc(Cl)c(Cl)c4)cc3)n2)cc1OC`, the MIC with Staphylococcus aureus [1], with Staphylococcus aureus [2], in the data set with Staphylococcus aureus [3], in the data set with Staphylococcus aureus [4], with Staphylococcus aureus [5] and in the data set on Staphylococcus aureus [6] was 0.25 µg/mL (≈ 0.517 µM) each time. In addition, the MIC came out at 0.25 µg/mL (≈ 0.517 µM) in the data set on Staphylococcus aureus [7]; 0.25 µg/mL (≈ 0.517 µM) with Staphylococcus aureus [8]; 0.25 µg/mL (≈ 0.517 µM) in the data set on Staphylococcus aureus [9]; 0.25 µg/mL (≈ 0.517 µM) with Staphylococcus aureus [10]; 32 µg/mL (≈ 66.2 µM) in data set [11]; 0.25 µg/mL (≈ 0.517 µM) in the data set with Staphylococcus aureus [12]. Moreover, the MIC in the data set on Staphylococcus aureus [13], in the data set on Staphylococcus aureus [14] and in the data set on Staphylococcus aureus [15] was 0.25 µg/mL (≈ 0.517 µM) in each case. For the same compound, in data set [25], the k el at 1 h, 1 µM is 0.0001 s⁻¹. Besides, the microsomal CLint at 1 µM in data set [26] is 12.4 µL/min/mg. The selectivity ratio in data set [27] was 40. In addition, in [28], the half-life at 1 µM turned out to be 1.8 h. In addition, the CC50 at 72 h in [24] amounted to 10 µg/mL (≈ 20.7 µM). The solubility at 16 h in data set [29] was found to be 5 µg/mL (≈ 10.3 µM). Also, the inhibition result in data set [30] was “Active”. Further, the result in the data set on Staphylococcus aureus [31] was Active.

For the origin of these results see ChEMBL document CHEMBL5329155, “Synthesis and pharmacological evaluation of 1,3-diaryl substituted pyrazole based (thio)urea derivatives as potent antimicrobial agents against multi-drug resistant Staphylococcus aureus and Mycobacterium tuberculosis” (RSC Med Chem, 2023).
